Results: publication PMC12615753, “Glutathione as a taste modulator: molecular mechanisms of interaction with umami and sweet taste receptors” (Food Chemistry: Molecular Sciences, 2025)
pEC50: −log10 of the molar value.

Key:
hTAS1R1 H71Y/rTAS1R3 = biological target: T1, hTAS1R1 H71Y/rTAS1R3 (UniProt Q7RTX1+Q923K1, H71Y); assay: cell-based; format: cell-based, human, rat
T1 construct: UniProtKB number Q7RTX1–1); The cDNA coding region of rTAS1R3 was synthesized with optimized-codon usage for human expression; expressed in transfected cells; host or cells: HEK293T/17
T1 sequence (Q7RTX1 21-841 H71Y): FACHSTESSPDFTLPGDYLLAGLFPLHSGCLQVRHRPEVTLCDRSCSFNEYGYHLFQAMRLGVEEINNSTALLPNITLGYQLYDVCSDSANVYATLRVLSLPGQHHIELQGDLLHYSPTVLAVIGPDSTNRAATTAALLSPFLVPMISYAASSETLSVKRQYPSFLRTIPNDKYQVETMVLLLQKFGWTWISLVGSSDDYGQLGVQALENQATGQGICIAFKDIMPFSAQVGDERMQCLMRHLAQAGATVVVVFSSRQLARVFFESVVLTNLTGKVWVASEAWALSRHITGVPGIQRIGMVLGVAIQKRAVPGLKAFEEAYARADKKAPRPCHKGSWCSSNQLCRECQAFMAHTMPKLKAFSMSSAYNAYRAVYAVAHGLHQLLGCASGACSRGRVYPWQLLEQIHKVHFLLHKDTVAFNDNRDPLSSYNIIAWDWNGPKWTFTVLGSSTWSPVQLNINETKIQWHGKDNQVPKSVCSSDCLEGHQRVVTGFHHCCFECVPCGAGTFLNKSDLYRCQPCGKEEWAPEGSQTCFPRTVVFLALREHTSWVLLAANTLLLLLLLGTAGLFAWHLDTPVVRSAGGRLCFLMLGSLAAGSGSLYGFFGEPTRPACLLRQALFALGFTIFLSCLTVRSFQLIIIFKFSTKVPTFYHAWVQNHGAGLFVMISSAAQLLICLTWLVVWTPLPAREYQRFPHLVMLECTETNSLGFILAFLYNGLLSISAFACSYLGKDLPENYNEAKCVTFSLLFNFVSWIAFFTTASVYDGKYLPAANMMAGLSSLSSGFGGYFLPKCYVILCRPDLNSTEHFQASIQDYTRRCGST
T1 sequence (Q923K1 21-858): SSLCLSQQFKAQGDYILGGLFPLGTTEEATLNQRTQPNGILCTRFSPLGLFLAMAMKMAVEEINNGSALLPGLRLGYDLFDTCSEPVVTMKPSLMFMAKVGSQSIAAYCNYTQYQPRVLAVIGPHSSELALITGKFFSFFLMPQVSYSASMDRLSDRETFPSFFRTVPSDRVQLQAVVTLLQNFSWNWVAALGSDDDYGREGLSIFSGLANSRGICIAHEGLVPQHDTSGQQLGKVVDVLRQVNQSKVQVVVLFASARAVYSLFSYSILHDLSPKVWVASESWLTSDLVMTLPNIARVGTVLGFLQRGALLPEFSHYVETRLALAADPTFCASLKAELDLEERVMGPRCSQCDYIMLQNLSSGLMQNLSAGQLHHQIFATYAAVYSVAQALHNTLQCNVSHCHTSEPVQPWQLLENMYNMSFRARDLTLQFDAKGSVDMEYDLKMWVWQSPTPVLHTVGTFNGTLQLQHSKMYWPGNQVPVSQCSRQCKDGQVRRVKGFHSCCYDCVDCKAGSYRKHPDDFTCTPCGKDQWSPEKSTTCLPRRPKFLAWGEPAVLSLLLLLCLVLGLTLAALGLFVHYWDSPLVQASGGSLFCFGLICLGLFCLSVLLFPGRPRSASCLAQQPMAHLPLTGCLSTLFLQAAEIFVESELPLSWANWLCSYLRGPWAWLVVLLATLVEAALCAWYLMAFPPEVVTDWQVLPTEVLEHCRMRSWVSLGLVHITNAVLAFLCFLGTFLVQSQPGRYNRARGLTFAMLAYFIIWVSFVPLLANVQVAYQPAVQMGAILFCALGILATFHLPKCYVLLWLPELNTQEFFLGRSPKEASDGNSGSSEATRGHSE
Source text: Chimeric Gα proteins, such as Gα16Gust44, Gα16Gi3 or Gα15i2, are widely used in the functional expression of TAS1R receptors ([Backes et al., 2015]; [Suess et al., 2015]; [Toda et al., 2021], [Toda et al., 2013], [Toda et al., 2018]; [Zhang et al., 2008]). Chimeric Gα15i2 (([Toda et al., 2013]), Supplementary data) was generated by replacing the last five residues of the C-terminal tail of rat Gα15i2 (EINLL) (UniProt number G3V6N8; https://www.uniprot.org/uniprot/) with the counterpart sequence from human GNAI2 (DCGLF) (UniProt number P04899-1) and cloning into the pcDNA3.1/Hygro vector (Invitrogen, Thermo Fisher Scientific, Illkirch, France) between the HindIII and NotI restriction sites, resulting in the plasmid pcDNA3.1-Gα15i2. Chimeric Gα16Gust44 construct have already been reported ([Raliou et al., 2011]). Briefly, Gα16Gust44 was generated by replacing the C-terminal of Gα16 with the C-terminal 44 residues of gustducin. As previously described, hTAS1R1 was amplified from human fungiform papillae cDNA and cloned and inserted into pcDNA3 (Invitrogen), generating pcDNA3-TAS1R1-WT (wild-type) ([Raliou et al., 2011]). […] The cDNA coding region of rTAS1R3 was synthesized with optimized-codon usage for human expression (Genewiz) and was cloned and inserted into the mammalian pcDNA4/myc-HisA (Invitrogen) expression vector between the EcoRI and NotI restriction sites, resulting in the plasmid pcDNA4-rTAS1R3. […] The sequence integrity of all the plasmid constructs was verified via automated DNA sequencing (Genewiz).
The hTAS1R1 mutants were co-expressed with the rTAS1R3 subunit in HEK293 cells. […] As a control, the functionality of the mutated receptors was checked after stimulation with S807 (Fig. S8), which interacts with TAS1R1-TMD ([Zhang et al., 2008]).

rTAS1R3 = rTAS1R3 (Rattus norvegicus, UniProt Q923K1); conditions: GSH alone; Fig. 5C
Procedure: (§1) HEK293T/17 cells (ATCC CRL-11268) were seeded into clear bottom black 96-well plates coated with poly-D-lysine at a density of 32500 cells/well in 100 μL of DMEM containing 4.5 g/L glucose and supplemented with penicillin/streptomycin, 2 mM GlutaMAX and 10 % dialyzed fetal bovine serum. The plates were incubated for 24 h at 37 °C and 7.3 % CO2 in a humidified atmosphere. After incubation, using Fugene® 4 K (0.46 μL/well, Promega, Illkirch, France), the cells were transiently transfected with pcDNA3-hTAS1R1-WT (60 ng/well) or TAS1R1 mutants, pcDNA4-rTAS1R3 (60 ng/well), pcDNA3-Gα15i2 (10 ng/well), and pGP-CMV-GCaMP6s (Addgene #40753; 10 ng/well) as a genetically encoded calcium indicator. […] After 20 s of basal fluorescence calcium measurement, the cells were stimulated via automatic injection of a range of compounds in eight wells, and the signal emission was recorded for an additional 70 s, via a FlexStation 3® fluorometric microplate reader (Molecular Devices, San Jose, CA, USA). […] The emitted fluorescence was measured at a wavelength of 510 nm after excitation at 488 nm. […] For each well, the decrease in the raw fluorescence as the relative fluorescence changed was calculated as ΔF/F0. Replicates were averaged for the wells subjected to the same stimuli, the background signal was subtracted, and the fluorescence changes in mock-transfected cells were subtracted. […]

hTAS1R3 = hTAS1R3 (Homo sapiens, UniProt Q7RTX0); conditions: GSH alone; Fig. 5B
hTAS1R3, sequence (Q7RTX0 21-852): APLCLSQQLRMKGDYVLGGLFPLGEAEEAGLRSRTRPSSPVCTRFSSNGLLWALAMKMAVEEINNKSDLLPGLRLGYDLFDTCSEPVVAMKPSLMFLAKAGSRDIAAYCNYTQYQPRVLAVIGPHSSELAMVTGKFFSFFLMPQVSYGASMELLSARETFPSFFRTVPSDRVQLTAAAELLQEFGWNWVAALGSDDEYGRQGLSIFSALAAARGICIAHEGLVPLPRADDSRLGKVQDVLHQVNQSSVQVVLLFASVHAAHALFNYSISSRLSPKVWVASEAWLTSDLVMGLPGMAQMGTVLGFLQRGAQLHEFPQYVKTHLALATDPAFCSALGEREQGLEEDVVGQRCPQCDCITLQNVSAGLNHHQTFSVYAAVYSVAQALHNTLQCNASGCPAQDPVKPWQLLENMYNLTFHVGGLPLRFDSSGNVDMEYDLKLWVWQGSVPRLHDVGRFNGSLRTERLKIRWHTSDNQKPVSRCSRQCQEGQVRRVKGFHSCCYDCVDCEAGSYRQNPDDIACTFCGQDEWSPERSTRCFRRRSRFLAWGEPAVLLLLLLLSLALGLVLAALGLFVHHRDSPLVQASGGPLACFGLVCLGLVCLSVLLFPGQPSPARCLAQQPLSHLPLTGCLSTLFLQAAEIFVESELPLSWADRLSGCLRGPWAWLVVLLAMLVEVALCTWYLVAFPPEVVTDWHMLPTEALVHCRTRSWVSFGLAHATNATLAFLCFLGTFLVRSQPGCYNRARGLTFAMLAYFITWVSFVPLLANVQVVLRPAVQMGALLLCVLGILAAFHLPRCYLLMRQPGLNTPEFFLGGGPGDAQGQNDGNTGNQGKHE
Procedure: as §1

hTAS1R1 D192E/rTAS1R3 = biological target: T2, hTAS1R1 D192E/rTAS1R3 (UniProt Q7RTX1+Q923K1, D192E); assay: cell-based; design: species or system human, rat
T2 construct: The cDNA coding region of rTAS1R3 was synthesized with optimized-codon usage for human expression; expressed in transfected cells; host or cells: HEK293T/17
T2 sequence (Q7RTX1 21-841 D192E, one chain of several): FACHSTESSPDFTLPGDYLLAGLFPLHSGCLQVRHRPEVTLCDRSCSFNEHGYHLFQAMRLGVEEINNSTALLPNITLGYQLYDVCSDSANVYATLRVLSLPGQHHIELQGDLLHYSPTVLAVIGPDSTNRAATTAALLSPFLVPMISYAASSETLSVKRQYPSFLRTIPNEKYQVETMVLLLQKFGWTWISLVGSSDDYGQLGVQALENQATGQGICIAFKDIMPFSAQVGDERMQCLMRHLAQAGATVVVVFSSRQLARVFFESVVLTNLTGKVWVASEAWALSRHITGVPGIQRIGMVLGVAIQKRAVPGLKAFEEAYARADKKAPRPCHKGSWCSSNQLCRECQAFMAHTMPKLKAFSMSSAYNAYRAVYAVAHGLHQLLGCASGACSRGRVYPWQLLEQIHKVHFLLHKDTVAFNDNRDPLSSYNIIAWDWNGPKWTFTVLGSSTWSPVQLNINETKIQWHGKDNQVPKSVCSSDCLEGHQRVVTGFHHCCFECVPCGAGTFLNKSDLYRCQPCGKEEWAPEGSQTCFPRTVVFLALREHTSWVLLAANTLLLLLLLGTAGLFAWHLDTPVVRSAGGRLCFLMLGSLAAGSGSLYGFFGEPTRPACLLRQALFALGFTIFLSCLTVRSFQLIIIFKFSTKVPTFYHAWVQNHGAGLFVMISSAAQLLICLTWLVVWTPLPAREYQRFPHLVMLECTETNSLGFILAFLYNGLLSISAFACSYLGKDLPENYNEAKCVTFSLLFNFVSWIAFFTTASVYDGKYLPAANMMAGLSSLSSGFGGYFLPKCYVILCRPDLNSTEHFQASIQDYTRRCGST
Source text: Chimeric Gα proteins, such as Gα16Gust44, Gα16Gi3 or Gα15i2, are widely used in the functional expression of TAS1R receptors ([Backes et al., 2015]; [Suess et al., 2015]; [Toda et al., 2021], [Toda et al., 2013], [Toda et al., 2018]; [Zhang et al., 2008]). Chimeric Gα15i2 (([Toda et al., 2013]), Supplementary data) was generated by replacing the last five residues of the C-terminal tail of rat Gα15i2 (EINLL) (UniProt number G3V6N8; https://www.uniprot.org/uniprot/) with the counterpart sequence from human GNAI2 (DCGLF) (UniProt number P04899-1) and cloning into the pcDNA3.1/Hygro vector (Invitrogen, Thermo Fisher Scientific, Illkirch, France) between the HindIII and NotI restriction sites, resulting in the plasmid pcDNA3.1-Gα15i2. Chimeric Gα16Gust44 construct have already been reported ([Raliou et al., 2011]). Briefly, Gα16Gust44 was generated by replacing the C-terminal of Gα16 with the C-terminal 44 residues of gustducin. As previously described, hTAS1R1 was amplified from human fungiform papillae cDNA and cloned and inserted into pcDNA3 (Invitrogen), generating pcDNA3-TAS1R1-WT (wild-type) ([Raliou et al., 2011]). […]

CaSR = conditions: ref Ohsu et al., 2010; cited from earlier work

With `N[C@@H](CCC(=O)N[C@@H](CS)C(=O)NCC(=O)O)C(=O)O` [GSH, γ-L-glutamyl-L-cysteinyl-glycine] the pEC50 (hTAS1R1 H71Y/rTAS1R3) was 1.91, the “effect of the added compound (1 mM) on the response to L-Glu” value (hTAS1R1 H71Y/rTAS1R3; H71Y) was “did not affect” and the “Max ∆F/F0” value (hTAS1R1 H71Y/rTAS1R3; H71Y, GSH) was 0.65 ± 0.11. The “R1 = mutant EC50/WT EC50” value (hTAS1R1 H71Y/rTAS1R3; H71Y, GSH) was 4.9, the “response of transfected cells” value (rTAS1R3) was “did not respond” and the “response of transfected cells” value (hTAS1R3) was “did not respond”. The pEC50 (hTAS1R1 D192E/rTAS1R3) was less than 1.52 and the pEC50 (CaSR) was 6.15.
